According to PubChem BioAssay (NCI):
Values joined by “and” are separate entries in the source; they are usually repeats but may differ in a detail not shown here. Identical values can stand only once.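 Values below derive from 48-hour exposures of cells grown in 96-well plates, with endpoints linearly interpolated between the two concentrations bracketing the appropriate inhibition level. Abbreviation: GI50, concentration required for 50% inhibition of growth. TGI: concentration producing complete growth inhibition.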

Legend:
Assay in all cases: growth of human tumour cells (NCI), 48 h
[1] = system: EKVX NSCLC
[2] = system: SF-539 CNS
[3] = system: SNB-19 CNS
[4] = system: NCI-H226 lung
[5] = system: OVCAR-4 ovarian
[6] = system: HOP-62 NSCLC
[7] = system: M14 melanoma
[8] = system: SK-MEL-28 melanoma
[9] = system: UACC-62 melanoma
[10] = system: HCT-116 colon

Compound	TGI [1]	TGI [2]	TGI [3]	TGI [4]	TGI [5]	TGI [6]	TGI [7]	TGI [8]	TGI [9]	TGI [10]	GI50 [1]	GI50 [2]	GI50 [3]	GI50 [4]	GI50 [5]	GI50 [6]	GI50 [7]	GI50 [8]	GI50 [9]	GI50 [10]
S=C=NCc1ccccc1	28.4 µM	3.79 µM	13.1 µM	15 µM	13.8 µM	11.7 µM	5.81 µM	10.2 µM	14.1 µM	2.36 µM	–	–	–	–	–	–	–	–	–	–
CC1(C)N=C(N)N=C(N)N1c1cccc(CCCCc2ccccc2)c1	20.6 µM	7.39 µM	16.6 µM	24.5 µM	18.8 µM	22.2 µM	18.6 µM	15.6 µM	10.9 µM	17 µM	0.87 µM	0.212 µM	0.907 µM	2.35 µM	0.433 µM	0.556 µM	0.657 µM	0.894 µM	0.186 µM	0.0501 µM
CC(=O)OC1C/C(C)=C/CCC(C)/C=C/C2(C)CCC(C(C)(C)O)C12 (centres undefined)	> 100 µM	> 100 µM	> 100 µM	> 100 µM	> 100 µM	> 100 µM	> 100 µM	> 100 µM	> 100 µM	77.1 µM	–	–	–	–	–	–	–	–	–	–
O=C1c2ccccc2-c2n[nH]c3cccc1c23	> 100 µM and 85.1 µM	> 100 µM	> 100 µM	> 100 µM and 78.4 µM	> 100 µM	> 100 µM	> 100 µM	> 100 µM	86.6 µM and > 100 µM	> 100 µM	7.03 µM	25.1 µM	–	10.3 µM	20.2 µM	32.1 µM	5.03 µM	49.3 µM	19.7 µM	6.15 µM
COc1ccc2c(c1)sc1nc(-c3ccccc3)c(-c3ccc(O)c(OC)c3)n12	> 100 µM	> 100 µM	> 100 µM	> 100 µM	> 100 µM	> 100 µM	> 100 µM	> 100 µM	> 100 µM	> 100 µM	74.7 µM	6.63 µM	32.5 µM	22 µM	39.1 µM	37.8 µM	4.34 µM	8.99 µM	8.29 µM	4.95 µM
C=CC(=O)N1CCC([C@@H]2CCNc3c(C(N)=O)c(-c4ccc(Oc5ccccc5)cc4)nn32)CC1	> 100 µM	56.4 µM	> 100 µM	42.5 µM	97.2 µM	> 75.1 µM	31.9 µM	30.6 µM	26.6 µM	39.3 µM	2.35 µM	16.8 µM	16.9 µM	11.9 µM	13.5 µM	16.9 µM	14.4 µM	15.6 µM	11.4 µM	17.1 µM
COc1cc(/C=C/c2ccc(OC(C)=O)cc2)cc(OC)c1OC	> 100 µM	60.8 µM	> 100 µM	> 100 µM	> 100 µM	> 100 µM	> 100 µM	> 100 µM	70.6 µM	> 100 µM	–	–	–	–	–	–	–	–	–	–
CCC[CH2][Ge]([CH2]CCC)([CH2]CCC)[O]C(=O)C(O)c1ccccc1 (centres undefined)	15 µM	22.1 µM	> 63.7 µM	27.9 µM	29 µM	23.4 µM	12 µM	29.8 µM	18.1 µM	13.8 µM	0.309 µM	9.64 µM	18.5 µM	1.2 µM	0.794 µM	9.67 µM	2.51 µM	12.7 µM	4.03 µM	0.571 µM
Cc1ccccc1-c1c(N)nc(N)nc1C(=O)Nc1nccs1	> 100 µM	> 100 µM	> 100 µM	> 100 µM	> 100 µM	> 100 µM	> 100 µM	> 100 µM	> 100 µM	> 100 µM	–	–	–	–	–	–	–	–	–	–
Nc1nc(N)c2c(ccc3nccc32)[nH]1	> 100 µM	> 86.1 µM	> 100 µM	> 88.9 µM	66.6 µM	> 100 µM	> 79.8 µM	> 93.8 µM	17.6 µM	> 71.2 µM	2.22 µM	3.26 µM	7.98 µM	15.2 µM	21.5 µM	24.8 µM	1.92 µM	14.7 µM	2.67 µM	0.934 µM
O=c1oc2ccc(Cl)cc2c(=O)n1-c1cc(C(F)(F)F)cc(C(F)(F)F)c1	2.01 µM	1.74 µM	11.7 µM	2.21 µM	29.2 µM	4.36 µM	1.78 µM	1.69 µM	0.673 µM	1.21 µM	0.288 µM	0.317 µM	0.293 µM	0.305 µM	0.292 µM	0.352 µM	0.3 µM	0.273 µM	0.147 µM	0.277 µM
CC[C@H](C)[C@H](NC(=O)Nc1ccccc1)C(=O)N(C)[C@H](C[C@@H](OC(C)=O)c1nc(C(=O)N[C@@H](Cc2ccccc2)C[C@H](C)C(=O)OC)cs1)C(C)C	> 100 µM	6.85 µM	> 100 µM	> 100 µM	> 100 µM	> 100 µM	5.84 µM	> 100 µM	> 100 µM	> 100 µM	5.36 µM	2.37 µM	5.05 µM	8.83 µM	6.06 µM	3.66 µM	2.19 µM	> 100 µM	1.27 µM	3.33 µM
COc1cc(Cn2ccc3c2-c2oncc2CC3)cc(OC)c1	56.1 µM	21.4 µM	> 100 µM	> 100 µM	> 100 µM	> 100 µM	9.45 µM	> 100 µM	> 100 µM	26.6 µM	4.3 µM	2.8 µM	5.89 µM	15.5 µM	16.4 µM	4.4 µM	2.39 µM	8.75 µM	3.68 µM	3.49 µM
